Measured values reported in patent US10457709B2, “Antimicrobial peptides, their variants and uses” (priority 2015, dated 2019).
Like-named read-outs stand apart in the source and are kept apart here. Square brackets hold non-standard residues; d marks the D form. Peptide text beside a SMILES is read from it.

What was measured:
[1] = test system: Enterobacter cloacae clinical strains; format: cell-based; parameters: Minimum inhibitory concentration: unit: μg/ml; settings: microdilution, Muller Hinton broth-cation adjusted, 0.02% BSA, 0.2% acetic acid
In short: (§1)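 MIC = lowest concentration without visual growth after 20–24 h at 37° C. Microbroth dilution, 5.0×10^5 cfu/ml, 0.125–128 μg/ml range; MH broth for bacteria, potato dextrose broth for yeasts.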

[2] = test system: Proteus mirabilis clinical strains; format: cell-based; parameters: Minimum inhibitory concentration: unit: μg/ml; settings: microdilution, Muller Hinton broth-cation adjusted, 0.02% BSA, 0.2% acetic acid
In short: as §1

[3] = test system: Serratia marcescens clinical strains; format: cell-based; parameters: Minimum inhibitory concentration: unit: μg/ml; settings: microdilution, Muller Hinton broth-cation adjusted, 0.02% BSA, 0.2% acetic acid
In short: as §1

[4] = test system: Staphylococcus aureus clinical strains; format: cell-based; parameters: Minimum inhibitory concentration: unit: μg/ml; settings: microdilution, Muller Hinton broth-cation adjusted, 0.02% BSA, 0.2% acetic acid
In short: as §1

[5] = test system: Streptococcus pneumoniae clinical strains; format: cell-based; parameters: Minimum inhibitory concentration: unit: μg/ml; settings: microdilution, Muller Hinton broth-cation adjusted, 0.02% BSA, 0.2% acetic acid
In short: as §1

[6] = test system: Candida albicans clinical strains; assay: MIC, clinical yeast strains; format: cell-based; parameters: unit: μg/ml
In short: as §1

[7] = test system: C. glabrata clinical strains; assay: MIC, clinical yeast strains; format: cell-based, Candida glabrata; parameters: unit: µg/ml
In short: as §1

[8] = test system: C. parapsilosis clinical strains; assay: MIC, clinical yeast strains; format: cell-based, Candida parapsilosis; parameters: unit: µg/ml
In short: as §1

[9] = test system: C. quillermondiae clinical strains; assay: MIC, clinical yeast strains; format: cell-based, Candida quillermondiae; parameters: unit: μg/ml; settings: C. quillermondiae clinical yeast strain 1
In short: as §1

[10] = test system: Escherichia coli clinical strains; format: cell-based; settings: microdilution, Muller Hinton broth-cation adjusted, 0.02% BSA, 0.2% acetic acid
In short: as §1

[11] = test system: Klebsiella pneumoniae clinical strains; format: cell-based; settings: microdilution, Muller Hinton broth-cation adjusted, 0.02% BSA, 0.2% acetic acid
In short: as §1

[12] = test system: Pseudomonas aeruginosa clinical strains; format: cell-based; settings: microdilution, Muller Hinton broth-cation adjusted, 0.02% BSA, 0.2% acetic acid
In short: as §1

## CC(C)C[C@@H](NC(=O)[C@@H](CCCCN)NC(=O)[C@@H](CCCCN)NC(=O)[C@@H](Cc1ccccc1)NC(=O)[C@@H](CC(C)C)NC(=O)[C@@H](Cc1c[nH]c2ccccc12)NC(=O)[C@@H](CCCNC(=N)N)NC(=O)[C@@H](Cc1c[nH]c2ccccc12)NC(=O)[C@@H](CCCCN)NC(=O)[C@@H](CCCNC(=N)N)NC(=O)[C@H](N)CCCCN)C(=O)O [Chain310D] (H-[dK][dR][dK][dW][dR][dW][dL][dF][dK][dK][dL]-OH)
[1]; Enterobacter cloacae clinical strain 1
  Minimum inhibitory concentration: 128
[1]; Enterobacter cloacae clinical strain 2
  Minimum inhibitory concentration: 64
[1]; Enterobacter cloacae clinical strain 3
  Minimum inhibitory concentration: 16
[1]; Enterobacter cloacae clinical strain 4
  Minimum inhibitory concentration: 8
[1]; Enterobacter cloacae clinical strain 5
  Minimum inhibitory concentration: 16
[2]; Proteus mirabilis clinical strain 1
  Minimum inhibitory concentration: >128
[2]; Proteus mirabilis clinical strain 2
  Minimum inhibitory concentration: >128
[2]; Proteus mirabilis clinical strain 3
  Minimum inhibitory concentration: >128
[2]; Proteus mirabilis clinical strain 4
  Minimum inhibitory concentration: >128
[2]; Proteus mirabilis clinical strain 5
  Minimum inhibitory concentration: >128
[3]; Serratia marcescens clinical strain 1
  Minimum inhibitory concentration: >128
[3]; Serratia marcescens clinical strain 2
  Minimum inhibitory concentration: >128
[3]; Serratia marcescens clinical strain 3
  Minimum inhibitory concentration: >128
[3]; Serratia marcescens clinical strain 4
  Minimum inhibitory concentration: >128
[3]; Serratia marcescens clinical strain 5
  Minimum inhibitory concentration: >128
[4]; Staphylococcus aureus clinical strain 1
  Minimum inhibitory concentration: 8
[4]; Staphylococcus aureus clinical strain 2
  Minimum inhibitory concentration: 16
[4]; Staphylococcus aureus clinical strain 3
  Minimum inhibitory concentration: 8
[4]; Staphylococcus aureus clinical strain 4
  Minimum inhibitory concentration: 8
[4]; Staphylococcus aureus clinical strain 5
  Minimum inhibitory concentration: 4
[5]; Streptococcus pneumoniae clinical strain 1
  Minimum inhibitory concentration: 128
[5]; Streptococcus pneumoniae clinical strain 2
  Minimum inhibitory concentration: 128
[5]; Streptococcus pneumoniae clinical strain 3
  Minimum inhibitory concentration: 128
[5]; Streptococcus pneumoniae clinical strain 4
  Minimum inhibitory concentration: 128
[5]; Streptococcus pneumoniae clinical strain 5
  Minimum inhibitory concentration: 64
[6]; Candida albicans clinical yeast strain 1
  Minimum inhibitory concentration: 16
[6]; Candida albicans clinical yeast strain 2
  Minimum inhibitory concentration: 16
[6]; Candida albicans clinical yeast strain 3
  Minimum inhibitory concentration: 16
[6]; Candida albicans clinical yeast strain 4
  Minimum inhibitory concentration: 16
[6]; Candida albicans clinical yeast strain 5
  Minimum inhibitory concentration: 16
[7]; C. glabrata clinical yeast strain 1
  Minimum inhibitory concentration: 16
[7]; C. glabrata clinical yeast strain 2
  Minimum inhibitory concentration: 16
[7]; C. glabrata clinical yeast strain 3
  Minimum inhibitory concentration: 128
[7]; C. glabrata clinical yeast strain 4
  Minimum inhibitory concentration: 128
[8]; C. parapsilosis clinical yeast strain 1
  Minimum inhibitory concentration: 64
[8]; C. parapsilosis clinical yeast strain 2
  Minimum inhibitory concentration: 64
[8]; C. parapsilosis clinical yeast strain 3
  Minimum inhibitory concentration: 64
[8]; C. parapsilosis clinical yeast strain 4
  Minimum inhibitory concentration: 16
[9]
  Minimum inhibitory concentration: 8
[10]; Escherichia coli clinical strain 1
  Minimum inhibitory concentration: 4
[10]; Escherichia coli clinical strain 2
  Minimum inhibitory concentration: 32
[10]; Escherichia coli clinical strain 3
  Minimum inhibitory concentration: 16
[10]; Escherichia coli clinical strain 4
  Minimum inhibitory concentration: 16
[10]; Escherichia coli clinical strain 5
  Minimum inhibitory concentration: 16
[11]; Klebsiella pneumoniae clinical strain 1
  Minimum inhibitory concentration: 64
[11]; Klebsiella pneumoniae clinical strain 2
  Minimum inhibitory concentration: 64
[11]; Klebsiella pneumoniae clinical strain 3
  Minimum inhibitory concentration: 128
[11]; Klebsiella pneumoniae clinical strain 4
  Minimum inhibitory concentration: 64
[11]; Klebsiella pneumoniae clinical strain 5
  Minimum inhibitory concentration: 32
[12]; Pseudomonas aeruginosa clinical strain 1
  Minimum inhibitory concentration: 8
[12]; Pseudomonas aeruginosa clinical strain 2
  Minimum inhibitory concentration: 16
[12]; Pseudomonas aeruginosa clinical strain 3
  Minimum inhibitory concentration: 16
[12]; Pseudomonas aeruginosa clinical strain 4
  Minimum inhibitory concentration: 8
[12]; Pseudomonas aeruginosa clinical strain 5
  Minimum inhibitory concentration: 4
